Here are results for six molecules from patent US20240228543A1, “CYCLIC PEPTIDE INHIBITORS OF USP22” (THE JOHNS HOPKINS UNIVERSITY, priority 2021, published 2024).

Positions of bridges follow the written chain, without caps; N, C: chain ends. Non-standard residues stand in square brackets, D forms with d. Residues, ends and D or L forms follow the SMILES beside them.

For data set [1], the system named is H2B-Ub levels in HEK293T cells. Put plainly: Cell-based assay of H2B-Ub levels (histone extraction, western blot). Details: species or system human. The conditions noted are these: 5 μM, two hours, normalized to H3. As to the method: Bottom: anti-histone H3 loading control.
Cell-based Assay HEK293T cells were purchased from ATCC (CRL-3216) and cultures were expanded for at least 10 passages in Dulbecco's Modified Eagle Medium (DMEM) supplemented with 10% fetal bovine serum (FBS) in T75 flasks incubated in a 37° C. and 5% CO2 cabinet before any manipulation. Once cells were mature, HEK293T cells were grown to 80% confluence in 6-well plates, the media were aspirated, and media with reduced FBS (DMEM, 2% FBS) and 5 μM cyclic peptide were introduced. After two hours, the media were aspirated, and the cells were collected by scraping (˜1×10^6 cells per well). The cells were then washed in 1× PBS twice followed by histone extraction (Active Motif). The extracted histones were then western blotted for H2B-Ub levels (Cell Signaling, 5546S), using H3 western blotting (Abcam, ab1791) to normalize loading.
Each cyclic peptide was introduced as a supplement to the growth medium of HEK293T cells, the histones were extracted from each culture after two hours of exposure, and the levels of H2B-Ub was quantified by immunoblot. Levels of H2B-Ub were compared to control cells that were treated with DMSO, the yD1 cyclic peptide that has no effect on USP22 activity, or the broad-spectrum cell permeable DUB inhibitor. PR-619. The relative abundance of histone H3 was used to control for differences in nuclear extraction.
On the technique in general: A western blot detects proteins with antibodies after separation by electrophoresis.

Data set [2] has as its target T1, human DUB module (hDUBm; USP22, ATXN7, ATXN7L3, ENY2) (Homo sapiens, UniProt Q9UPT9).
T1 construct: 6xHis (TEV-cleavable) (N, cleaved yes); made in house; host or cells: High Five insect cells (baculovirus, Bac2Bac; virus amplified in Sf9)
The data set is described as follows: Ub-AMC deubiquitination assay, human DUB module. Conditions: 200 nM DUB, 1 μM Ub-AMC; read-out: Ki (apparent, Morrison approximation), Ub-AMC cleavage. The class given is biochemical. As for the experimental part: FIG. 2A is a graph of initial rates of Ub-AMC cleavage by hDUB module as a function of substrate concentration. […] FIGS. 2B-2G are graphs of each cyclic peptide, as indicated, tested for its ability to inhibit Ub-AMC cleavage in the presence of increasing amounts of the peptide into a reaction with a fixed amount of DUB (200 nM) and Ub-AMC (1 μM). Ki values were determined for each curve using the Morrison Ki approximation.
Ub-AMC deubiquitination assay A working stock mixture of either yDUBm or hDUBm was prepared in the presence of either DMSO (mock) or a dilution series of the cyclic peptide. […] Each enzyme:peptide mixture was incubated for 30 min at 30° C. in the case of yDUBm, and 37° C. in the case of hDUBm, with each enzyme complex at 1.033× the desired concentration (207 nM). The enzyme:peptide mixture ([…]) was added to 1 μL of 30 μM U b-AMC (7-amino-4-methylcoumarin) (Boston Biochem), for a final concentration of 200 nM DUBm, the indicated cyclic peptide concentration, and 1 μM Ub-AMC. DUB activity was measured by observing the increase in AMC fluorescence in a plate reader, and the initial rate of fluorescence increase was calculated and plotted as a function of inhibitor concentration (FIGS. 2B-2I). The Ki values were determined using the Morrison approximation of enzyme inhibition equilibria within Prism (Graphpad).
The cyclic peptides that constituted potential inhibitors were chemically synthesized by solid phase peptide synthesis and tested for their effectiveness and specificity as inhibitors in vitro. Since the enzyme kinetics of the human DUB module had not previously been characterized, hDUBm activity was assayed using the fluorogenic substrate, ubiquitin-amino methyl coumarin (Ub-AMC) (FIG. 2A).

Data set [3] has as its target human DUB module (hDUBm) on H2B-K120 ubiquitinated nucleosomes (Homo sapiens, UniProt Q9UPT9). The data set is described as follows: Deubiquitination of nucleosomal H2B by hDUBm. The conditions noted are these: 1 μM cyclic peptide, 200 nM hDUBm, 1 uM H2B-Ub nucleosome.
Method: Deubiquitination of nucleosomal H2B Recombinant human mononucleosomes containing histone H2B ubiquitinated at K120 (H2B-Ub) were obtained from Epicypher (dNuc, 16-0370) and diluted to 2 μM with reaction buffer. Both hDUBm and inhibitor peptides were diluted from concentrated stocks with reaction buffer (10 mM HEPES pH 7.5, 150 mM NaCl, 1 μM ZnCl2, and 0.2 mM TCEP) to a final concentration of 400 nM DUB module and 2 μM cyclic peptide and incubated at 37° C. for 20 minutes. Reactions were initiated by combining equal volumes of the enzyme-peptide mixture and nucleosomes, resulting in final concentrations of 200 nM hDUBm, 1 μM cyclic peptide, and 1 uM H2B-Ub nucleosome. Time points of the reaction were quenched with SDS sample buffer, separated by SDS-PAGE (Invitrogen, Bolt gels), and stained with Sypro Ruby (Life Technologies). Gels were imaged and quantitated (BioRad product info), using the H3 band as an independent load control to normalize the band intensities of H2B-Ub. Experiments were done in triplicate and analyzed using Prism (GraphPad).
To test the effectiveness of the inhibitors on a native-like substrate, the ability of each cyclic peptide to inhibit DUB activity on nucleosomes ubiquitinated at H2B-K120 was assayed.
Data set [4] can be described thus: Solubility in aqueous conditions. The class given is physicochemical.

T1 sequence (Q9UPT9 whole entry): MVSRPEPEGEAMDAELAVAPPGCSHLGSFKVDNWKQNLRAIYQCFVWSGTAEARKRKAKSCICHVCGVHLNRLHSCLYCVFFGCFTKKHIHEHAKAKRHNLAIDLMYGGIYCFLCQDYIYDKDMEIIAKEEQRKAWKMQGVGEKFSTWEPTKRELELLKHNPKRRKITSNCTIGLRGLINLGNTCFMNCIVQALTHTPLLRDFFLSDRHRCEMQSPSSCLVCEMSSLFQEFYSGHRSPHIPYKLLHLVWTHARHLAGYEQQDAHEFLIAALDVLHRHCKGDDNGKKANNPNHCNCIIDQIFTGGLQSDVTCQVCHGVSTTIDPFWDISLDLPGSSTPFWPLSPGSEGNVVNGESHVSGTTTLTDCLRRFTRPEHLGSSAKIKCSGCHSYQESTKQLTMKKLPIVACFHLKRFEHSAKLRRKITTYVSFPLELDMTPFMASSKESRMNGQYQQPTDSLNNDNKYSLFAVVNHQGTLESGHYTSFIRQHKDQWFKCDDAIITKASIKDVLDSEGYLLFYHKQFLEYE
T1 sequence (O15265 3-151 partner limits assumed): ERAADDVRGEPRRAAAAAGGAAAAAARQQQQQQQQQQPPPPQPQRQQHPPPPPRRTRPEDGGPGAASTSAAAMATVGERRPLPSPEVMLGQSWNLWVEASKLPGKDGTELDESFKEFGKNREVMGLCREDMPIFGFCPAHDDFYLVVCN
T1 sequence (Q14CW9 whole entry partner): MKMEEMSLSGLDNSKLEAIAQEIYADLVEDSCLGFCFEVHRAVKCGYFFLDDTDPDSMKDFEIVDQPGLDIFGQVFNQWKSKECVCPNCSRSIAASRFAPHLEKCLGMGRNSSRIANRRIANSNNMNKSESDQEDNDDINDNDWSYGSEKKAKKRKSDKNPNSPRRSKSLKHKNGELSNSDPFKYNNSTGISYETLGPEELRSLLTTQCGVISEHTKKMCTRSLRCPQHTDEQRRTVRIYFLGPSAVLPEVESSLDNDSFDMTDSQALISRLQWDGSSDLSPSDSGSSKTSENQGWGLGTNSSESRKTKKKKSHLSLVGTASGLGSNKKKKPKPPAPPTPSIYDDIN
T1 sequence (Q9NPA8 whole entry partner): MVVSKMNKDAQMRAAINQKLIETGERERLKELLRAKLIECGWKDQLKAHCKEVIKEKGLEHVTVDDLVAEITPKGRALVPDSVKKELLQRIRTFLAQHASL
Sequence of human DUB module (hDUBm) on H2B-K120 ubiquitinated nucleosomes (Q9UPT9 whole entry): as the sequence (Q9UPT9 whole entry) above
Sequence of human DUB module (hDUBm) on H2B-K120 ubiquitinated nucleosomes (O15265 3-151 partner limits assumed): as the sequence (O15265 3-151 partner limits assumed) above
Sequence of human DUB module (hDUBm) on H2B-K120 ubiquitinated nucleosomes (Q14CW9 whole entry partner): as the sequence (Q14CW9 whole entry partner) above
Sequence of human DUB module (hDUBm) on H2B-K120 ubiquitinated nucleosomes (Q9NPA8 whole entry partner): as the sequence (Q9NPA8 whole entry partner) above

As to `N#CSc1cc(SC#N)c(N)nc1N` [PR-619], the “change of H2B-Ub levels” value in data set [1] is recorded as “minor increase”.
Regarding `C[C@@H]1NC(=O)CNC(=O)[C@H](CCCNC(=N)N)NC(=O)[C@H](Cc2ccc(O)cc2)NC(=O)[C@H](CO)NC(=O)[C@H](Cc2c[nH]c3ccccc23)NC(=O)[C@H](CCC(N)=O)NC(=O)[C@H](Cc2c[nH]cn2)NC(=O)[C@@H](Cc2ccc(O)cc2)NC(=O)CSC[C@@H](C(N)=O)NC(=O)[C@H](CO)NC(=O)[C@H](CCCNC(=N)N)NC(=O)[C@H](Cc2ccc(O)cc2)NC(=O)[C@H]([C@@H](C)O)NC1=O` [hD2] ({CH2CO}-[dY]HQWSYRGATYRSC-NH2; thioether N-14), the Ki in data set [2] is less than 100 nM.
`CC(C)C[C@@H]1NC(=O)[C@H](Cc2c[nH]c3ccccc23)NC(=O)[C@H](CO)NC(=O)[C@H](CCCNC(=N)N)NC(=O)[C@H](CC(C)C)NC(=O)[C@H](CCCNC(=N)N)NC(=O)[C@H](Cc2ccc(O)cc2)NC(=O)[C@H](Cc2ccc(O)cc2)NC(=O)[C@H](CO)NC(=O)[C@@H]2CCCN2C(=O)CNC(=O)[C@H](CC(N)=O)NC(=O)[C@@H](Cc2ccc(O)cc2)NC(=O)CSC[C@@H](C(N)=O)NC(=O)[C@H](CO)NC(=O)[C@H](CO)NC1=O` [hD3] ({CH2CO}-[dY]NGPSYYRLRSWLSSC-NH2; thioether N-16): the “inhibition of nucleosomal H2B-Ub cleavage by hDUBm” value in data set [3] was “inhibit the enzymatic activity”.
Regarding `CC[C@H](C)[C@@H]1NC(=O)[C@H](Cc2c[nH]c3ccccc23)NC(=O)[C@@H](Cc2ccc(O)cc2)NC(=O)CSC[C@@H](C(N)=O)NC(=O)[C@H](Cc2ccccc2)NC(=O)[C@H](CO)NC(=O)[C@H](CCCCN)NC(=O)[C@H](CO)NC(=O)[C@H](CC(C)C)NC(=O)CNC(=O)[C@H](CCCNC(=N)N)NC(=O)[C@H](Cc2ccc(O)cc2)NC(=O)[C@H](CO)NC(=O)[C@H](Cc2c[nH]cn2)NC(=O)[C@H]([C@@H](C)O)NC1=O` [hD4] ({CH2CO}-[dY]WITHSYRGLSKSFC-NH2; thioether N-15), the Ki in data set [2] was found to be 804 nM.
Turning to `CC[C@H](C)[C@@H]1NC(=O)[C@H](Cc2c[nH]cn2)NC(=O)[C@H](CC(=O)O)NC(=O)[C@H](CO)NC(=O)[C@H](Cc2c[nH]c3ccccc23)NC(=O)[C@H](Cc2ccccc2)NC(=O)[C@H](CCCNC(=N)N)NC(=O)[C@H](Cc2ccccc2)NC(=O)[C@H](CC(N)=O)NC(=O)[C@H](CC(C)C)NC(=O)[C@H]([C@@H](C)O)NC(=O)[C@H](Cc2ccc(O)cc2)NC(=O)CSC[C@@H](C(N)=O)NC(=O)[C@H](CO)NC(=O)[C@H](Cc2ccc(O)cc2)NC(=O)[C@H](Cc2c[nH]c3ccccc23)NC(=O)[C@H](CO)NC1=O` [hL1] ({CH2CO}-YTLNFRFWSDHISWYSC-NH2; thioether N-17), in data set [2], the Ki is less than 100 nM.
`CC(C)C[C@@H]1NC(=O)[C@H](Cc2ccc(O)cc2)NC(=O)CSC[C@@H](C(N)=O)NC(=O)[C@H](Cc2ccc(O)cc2)NC(=O)[C@H](CC(C)C)NC(=O)[C@H](CCCNC(=N)N)NC(=O)[C@H](CC(C)C)NC(=O)[C@H](CO)NC(=O)[C@H](Cc2c[nH]c3ccccc23)NC(=O)CNC(=O)[C@H](Cc2ccccc2)NC(=O)[C@H](CO)NC(=O)[C@H](Cc2ccccc2)NC(=O)[C@H](C)NC(=O)[C@H](CO)NC(=O)[C@H](CC(=O)O)NC(=O)[C@H](Cc2c[nH]cn2)NC1=O` [yL1] ({CH2CO}-YLHDSAFSFGWSLRLYC-NH2; thioether N-17): in data set [4], the “solubility in aqueous conditions” value is “insoluble in aqueous conditions”.
